Assay results published in US20260184687A1, “DIHYDROINDENE DERIVATIVES AS MALT1 INHIBITORS” (C4X Discovery Limited, priority 2022, published 2026).
pIC50: −log10 of the molar value.

Experiments:
[1] = test system: IL-2 release from stimulated Jurkat cells; test: Human IL-2 Release Phenotypic Assay (Assay 3); format: cell-based; details: Jurkat cells (clone E6-1), 200 ng/mL PMA + 300 ng/mL ionomycin, IL-2 by ELISA
Experimental: This assay measured the inhibition by MALT1 inhibitors of the IL-2 release from stimulated Jurkat cells, a human immortalized T lymphocyte cell line. IL-2 production from Jurkat cells is regulated by activation of NFκB signalling, which is in turn regulated by MALT1 protease activity.
Jurkat cells (clone E6-1, ATCC) were cultured in RPMI1640 supplemented with 10% (v/v) FBS and 1% (v/v) penicillin/streptomycin (100× liquid stocks). Cells were seeded in 96-well white tissue culture-treated plates (Perkin Elmer) at 50 000 cells/well and incubated overnight at 37° C., 5% CO2. Test compounds in DMSO at half-log dilutions were added to the cells and incubated for 30 mins. Final DMSO concentration was 0.5%. Cells were then stimulated with 200 ng/mL PMA+300 ng/mL ionomycin and incubated for 48 hours. […] IC50 values were calculated using GraphPad Prism using 4-parameter non-linear regression curve fit.

[2] = target: T1, FL hMALT1 enzyme (Homo sapiens, UniProt Q9UDY8); test: biochemical;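 also: Cell-free protease assay: enzyme preincubated with compound 30 min at room temperature, then cleavage of fluorogenic Ac-LVSR-AMC substrate (100 µM) tracked by fluorescence (ex 360/em 460 nm)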
T1 sequence (Q9UDY8 1-824): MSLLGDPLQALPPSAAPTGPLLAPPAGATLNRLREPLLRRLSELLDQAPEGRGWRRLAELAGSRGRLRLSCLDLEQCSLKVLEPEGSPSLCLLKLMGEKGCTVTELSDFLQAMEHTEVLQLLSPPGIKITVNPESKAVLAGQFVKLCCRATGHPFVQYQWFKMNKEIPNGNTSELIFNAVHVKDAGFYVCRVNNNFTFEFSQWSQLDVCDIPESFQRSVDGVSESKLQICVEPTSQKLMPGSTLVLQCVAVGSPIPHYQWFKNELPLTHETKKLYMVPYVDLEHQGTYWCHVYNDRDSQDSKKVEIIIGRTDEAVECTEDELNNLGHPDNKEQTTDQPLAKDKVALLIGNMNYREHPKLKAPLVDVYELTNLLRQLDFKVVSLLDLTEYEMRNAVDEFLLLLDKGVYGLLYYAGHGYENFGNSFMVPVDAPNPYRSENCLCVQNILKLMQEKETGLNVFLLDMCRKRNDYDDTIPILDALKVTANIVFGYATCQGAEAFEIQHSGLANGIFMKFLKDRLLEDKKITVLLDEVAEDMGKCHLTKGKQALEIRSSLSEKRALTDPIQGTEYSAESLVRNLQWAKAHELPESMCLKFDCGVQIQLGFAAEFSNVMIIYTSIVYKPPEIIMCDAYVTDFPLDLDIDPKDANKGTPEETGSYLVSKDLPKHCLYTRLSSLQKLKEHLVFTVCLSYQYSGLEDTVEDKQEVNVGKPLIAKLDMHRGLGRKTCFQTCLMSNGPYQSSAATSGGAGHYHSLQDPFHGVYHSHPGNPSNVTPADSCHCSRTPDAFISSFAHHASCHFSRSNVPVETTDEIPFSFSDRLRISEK

SMILES | pIC50 ([1]; 48 hours) | pIC50 [2] | pIC50 ([1]; Homo sapiens, Jurkat, 48 h)
CN(C(=O)C1CCC(=O)NC1)[C@@H](c1ccc(NC2Cc3ccccc3C2(C)C)cn1)C(F)(F)F (single isomer, unassigned) [Example 104] | 5.57 | 6.85 | 
CN(C(=O)C1CCC(=O)NC1)[C@@H](c1ccc(NC2Cc3ccccc3C2(C)C)cn1)C(F)(F)F (single isomer, unassigned) [Example 105] | 6.64 | 7.44 | 
CN(C(=O)C1CCC(=O)NC1)[C@@H](c1ccc(NC2Cc3ccccc3C2(C)C)cn1)C(F)(F)F (single isomer, unassigned) [Example 106] | 6.27 | 6.89 | 
CN(C(=O)C1CCC(=O)NC1)[C@@H](c1ccc(NC2Cc3ccccc3C2(C)C)cn1)C(F)(F)F (single isomer, unassigned) [Example 107] | 6.39 | 7.35 | 
CN(C(=O)C1CNC(=O)O1)[C@@H](c1ccc(N[C@@H]2Cc3ccccc3C2(C)C)cn1)C(F)(F)F (single isomer, unassigned) [Example 108] | 6.05 | 6.82 | 
CN(C(=O)C1CNC(=O)O1)[C@@H](c1ccc(N[C@@H]2Cc3ccccc3C2(C)C)cn1)C(F)(F)F (single isomer, unassigned) [Example 109] | 6.05 | 6.12 | 
CN(C(=O)C1CNC(=O)O1)[C@@H](c1ccc(N[C@@H]2Cc3ccccc3C2(C)C)cn1)C(F)(F)F (single isomer, unassigned) [Example 110] | 6.83 | 7.80 | 
CC(=O)N1C[C@H](O)C[C@H]1C(=O)N(C)[C@@H](c1ccc(N[C@H]2Cc3ccccc3C2(C)C)cn1)C(F)(F)F [Example 183, (2S,4R)-1-Acetyl-N—((S)-1-(5-(((S)-1,1-dimethyl-2,3-dihydro-1H-inden-2-yl)amino)pyridin-2-yl)-2,2,2-trifluoroethyl)-4-hydroxy-N-methylpyrrolidine-2-carboxamide] |  |  | 6.29
CC(=O)N[C@H]1C[C@H](C(=O)N(C)[C@@H](c2ccc(N[C@H]3Cc4ccccc4C3(C)C)cn2)C(F)(F)F)C1 [Example 186, (1,3-trans)-3-Acetamido-N—((S)-1-(5-(((S)-1,1-dimethyl-2,3-dihydro-1H-inden-2-yl)amino)pyridin-2-yl)-2,2,2-trifluoroethyl)-N-methylcyclobutane-1-carboxamide] |  |  | 6.34
CC(=O)N1CC[C@@H](C(=O)N(C)[C@@H](c2ccc(N[C@H]3Cc4ccccc4C3(C)C)cn2)C(F)(F)F)C1 [Example 192, (R)-1-Acetyl-N—((S)-1-(5-(((S)-1,1-dimethyl-2,3-dihydro-1H-inden-2-yl)amino)pyridin-2-yl)-2,2,2-trifluoroethyl)-N-methylpyrrolidine-3-carboxamide] |  |  | 6.36
CN(C(=O)CC1CCS(=O)(=O)CC1)[C@@H](c1ccc(N[C@H]2Cc3ccccc3C2(C)C)cn1)C(F)(F)F [Example 196, N—((S)-1-(5-(((S)-1,1-Dimethyl-2,3-dihydro-1H-inden-2-yl)amino)pyridin-2-yl)-2,2,2-trifluoroethyl)-2-(1,1-dioxidotetrahydro-2H-thiopyran-4-yl)-N-methylacetamide] |  |  | 6.07
CN(C(=O)[C@@H]1CCC(=O)NC1)[C@@H](c1ccc(N[C@H]2Cc3ccccc3C2(C)C)nc1)C(F)(F)F [Example 218, (R)—N—((S)-1-(6-(((S)-1,1-dimethyl-2,3-dihydro-1H-inden-2-yl)amino)pyridin-3-yl)-2,2,2-trifluoroethyl)-N-methyl-6-oxopiperidine-3-carboxamide] |  |  | 6.37
CN(C(=O)[C@H]1C[C@@H](NS(C)(=O)=O)C1)[C@@H](c1ccc(N[C@H]2Cc3ccccc3C2(C)C)cn1)C(F)(F)F [Example 241, (1,3-cis)-N—((S)-1-(5-(((S)-1,1-Dimethyl-2,3-dihydro-1H-inden-2-yl)amino)pyridin-2-yl)-2,2,2-trifluoroethyl)-N-methyl-3-(methylsulfonamido)cyclobutane-1-carboxamide] |  |  | 6.40
Cc1cc2c(cc1C)CC(Nc1ccc([C@H](N(C)C(=O)C3CCS(=O)(=O)CC3)C(F)(F)F)nc1)C2 [Example 260, (S)—N-(1-(5-((5,6-Dimethyl-2,3-dihydro-1H-inden-2-yl)amino)pyridin-2-yl)-2,2,2-trifluoroethyl)-N-methyltetrahydro-2H-thiopyran-4-carboxamide 1,1-dioxide] |  |  | 6.07

More lines, now with the values ahead:

pIC50 ([1]; 48 hours) | pIC50 [2] | pIC50 ([1]; Homo sapiens, Jurkat, 48 h) | SMILES
 |  | 6.68 | CN(C(=O)[C@@H]1CCC(=O)N1)[C@@H](c1ccc(N[C@H]2Cc3ccccc3C2(C)C)cn1)C(F)(F)F [Example 170, (S)—N—((S)-1-(5-(((S)-1,1-Dimethyl-2,3-dihydro-1H-inden-2-yl)amino)pyridin-2-yl)-2,2,2-trifluoroethyl)-N-methyl-5-oxopyrrolidine-2-carboxamide]
 |  | 6.40 | CC(=O)N[C@H]1C[C@@H](C(=O)N(C)[C@@H](c2ccc(N[C@H]3Cc4ccccc4C3(C)C)cn2)C(F)(F)F)C1 [Example 182, (1,3-cis)-3-Acetamido-N—((S)-1-(5-(((S)-1,1-dimethyl-2,3-dihydro-1H-inden-2-yl)amino)pyridin-2-yl)-2,2,2-trifluoroethyl)-N-methylcyclobutane-1-carboxamide]
 |  | 6.48 | CN(C(=O)[C@H]1CCC(=O)NC1)[C@@H](c1ccc(N[C@H]2Cc3ccccc3C2(C)C)nc1)C(F)(F)F [Example 219]
 |  | 6.59 | CN(C(=O)[C@H]1C[C@H](NS(C)(=O)=O)C1)[C@@H](c1ccc(N[C@H]2Cc3ccccc3C2(C)C)cn1)C(F)(F)F [Example 222, (1,3-trans)-N—((S)-1-(5-(((S)-1,1-Dimethyl-2,3-dihydro-1H-inden-2-yl)amino)pyridin-2-yl)-2,2,2-trifluoroethyl)-N-methyl-3-(methylsulfonamido)cyclobutane-1-carboxamide]
 |  | 6.82 | CN(C(=O)C1CCN(S(C)(=O)=O)CC1)[C@@H](c1ccc(N[C@H]2Cc3ccccc3C2(C)C)cn1)C(F)(F)F [Example 223, N—((S)-1-(5-(((S)-1,1-Dimethyl-2,3-dihydro-1H-inden-2-yl)amino)pyridin-2-yl)-2,2,2-trifluoroethyl)-N-methyl-1-(methylsulfonyl)piperidine-4-carboxamide]
 |  | 6.70 | CC(=O)N1CCC(C(=O)N(C)[C@@H](c2ccc(N[C@H]3Cc4ccccc4C3(C)C)cn2)C(F)(F)F)CC1 [Example 224, 1-Acetyl-N—((S)-1-(5-(((S)-1,1-dimethyl-2,3-dihydro-1H-inden-2-yl)amino)pyridin-2-yl)-2,2,2-trifluoroethyl)-N-methylpiperidine-4-carboxamide]
 |  | 6.48 | CNC(=O)[C@H]1C[C@@H](C(=O)N(C)[C@@H](c2ccc(N[C@H]3Cc4ccccc4C3(C)C)cn2)C(F)(F)F)C1 [Example 240, (1,3-cis)-N^1—((S)-1-(5-(((S)-1,1-Dimethyl-2,3-dihydro-1H-inden-2-yl)amino)pyridin-2-yl)-2,2,2-trifluoroethyl)-N^1,N^3-dimethylcyclobutane-1,3-dicarboxamide]
 |  | 6.57 | CN(C(=O)[C@@H]1C[C@@H](O)CN1S(C)(=O)=O)[C@@H](c1ccc(N[C@H]2Cc3ccccc3C2(C)C)cn1)C(F)(F)F [Example 244, (2S,4R)—N—((S)-1-(5-(((S)-1,1-Dimethyl-2,3-dihydro-1H-inden-2-yl)amino)pyridin-2-yl)-2,2,2-trifluoroethyl)-4-hydroxy-N-methyl-1-(methylsulfonyl)pyrrolidine-2-carboxamide]
 |  | 6.77 | CNC(=O)[C@H]1C[C@H](C(=O)N(C)[C@@H](c2ccc(N[C@H]3Cc4ccccc4C3(C)C)cn2)C(F)(F)F)C1 [Example 247, (1,3-trans)-N—((S)-1-(5-(((S)-1,1-Dimethyl-2,3-dihydro-1H-inden-2-yl)amino)pyridin-2-yl)-2,2,2-trifluoroethyl)-N^1,N^3-dimethylcyclobutane-1,3-dicarboxamide]
 |  | 6.46 | CN(C(=O)[C@@H]1CNC(=O)C1)[C@@H](c1ccc(N[C@H]2Cc3ccc(Cl)cc3C2)cn1)C(F)(F)F [Example 300, (S)—N—((S)-1-(5-(((S)-5-Chloro-2,3-dihydro-1H-inden-2-yl)amino)pyridin-2-yl)-2,2,2-trifluoroethyl)-N-methyl-5-oxopyrrolidine-3-carboxamide]
